Consider four compounds from publication PMC9744210, “Discovery of the SHP2 allosteric inhibitor 2-((3R,4R)-4-amino-3-methyl-2-oxa-8-azaspiro[4.5]decan-8-yl)-5-(2,3-dichlorophenyl)-3-methylpyrrolo[2,1-f][1,2,4] triazin-4(3H)-one” (Journal of Enzyme Inhibition and Medicinal Chemistry, 2022).

The target in the experiment is T1, SHP2 (Homo sapiens, UniProt Q06124).
T1 construct: 6xHis (N, cleaved yes); TEV cleavage site (N, cleaved yes); made in house; host or cells: E. coli BL21 (DE3)
T1 sequence (Q06124 1-525): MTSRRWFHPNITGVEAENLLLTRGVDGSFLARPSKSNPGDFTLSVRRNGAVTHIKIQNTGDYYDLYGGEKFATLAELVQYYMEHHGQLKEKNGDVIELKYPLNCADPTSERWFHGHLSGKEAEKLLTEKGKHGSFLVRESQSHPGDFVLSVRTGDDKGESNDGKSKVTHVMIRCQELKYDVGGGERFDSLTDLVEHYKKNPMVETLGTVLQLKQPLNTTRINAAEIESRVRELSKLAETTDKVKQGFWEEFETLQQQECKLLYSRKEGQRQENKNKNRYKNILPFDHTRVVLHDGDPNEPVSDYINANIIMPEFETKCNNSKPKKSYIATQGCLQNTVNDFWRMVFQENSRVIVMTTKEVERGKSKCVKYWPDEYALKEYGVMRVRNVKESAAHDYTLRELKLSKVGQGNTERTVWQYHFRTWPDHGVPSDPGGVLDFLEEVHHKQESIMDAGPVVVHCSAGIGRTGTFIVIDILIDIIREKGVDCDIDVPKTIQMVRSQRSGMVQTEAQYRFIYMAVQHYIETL
The experiment is described as follows: SHP2 phosphatase activity inhibition, DiFMUP prompt fluorescence assay. It counts as biochemical. Conditions: 0.5 nM SHP2 activated with 0.125 µM bis-tyrosyl-phosphorylated peptide; substrate DiFMUP 200 μM; room temperature; read-out: Inhibitory activity IC50. Here is the method:
The measurement of the catalytic activity of SHP2 is using the surrogate substrate 6,8-difluoro-4-methylumbelliferyl phosphate (DiFMUP) in a prompt fluorescence assay format.[14]^,[22]^,[23] In special, the phosphatase reaction was performed at room temperature in a 384-well black plate (Corning) with a total volume of 20 μL. The assay buffer contained 60 mM HEPES, pH7.2, 75 mM NaCl, 75 mM KCl, 1 mM EDTA, 5 mM DTT, and 0.05% Triton X-100.
After 60 min incubation at room temperature, the surrogate substrate DiFMUP (Thermo, Cat: D6567, 200 μM) was added to the catalytic reaction. After 30 min incubation at room temperature, the fluorescence signal was measured at the excitation and emission wavelengths of 340 nm and 450 nm respectively with a plate reader (Tecan Spark). The curves of the inhibitor dose–response were analysed using normalised IC50 regression curve fitting with control-based normalisation.
`C[C@H]1OCC2(CCN(c3nn4ccc(-c5ccncc5)c4c(=O)n3C)CC2)[C@H]1N` [PB17-035-01]: the IC50 is 168 nM.

As to `C[C@H]1OCC2(CCN(c3nn4ccc(-c5cccc(Cl)c5Cl)c4c(=O)n3C)CC2)[C@H]1N` [PB17-026-01, 2-((3R,4R)-4-amino-3-methyl-2-oxa-8-azaspiro[4.5]decan-8-yl)-5–(2,3-dichlorophenyl)-3-methylpyrrolo[2,1-f][1,2,4]triazin-4(3H)-one], the IC50 turned out to be 38.9 nM.

In the case of `Cn1c(N2CCC(C)(CN)CC2)nn2ccc(-c3cccc(Cl)c3Cl)c2c1=O` [PB17-036-01], the IC50 is 645 nM.

For the compound `C[C@H]1OCC2(CCN(c3nn4cnc(-c5cccc(Cl)c5Cl)c4c(=O)n3C)CC2)[C@H]1N` [PB17-021-01], the 50% inhibitory concentration (IC50) is 104 nM.

In general, IC50 refers to the concentration that gives 50% inhibition.
